In patent US12336981B2, “Compounds and compositions for the inhibition of NAMPT” (Valo Health, Inc., priority 2010, dated 2025):
Like-named read-outs stand apart in the source and are kept apart here.

Tests used:
[1] = molecular target: T1, NAMPT (Homo sapiens, UniProt P43490); test: Biochemical inhibition assay: NAMPT enzymatic reaction, NMN quantified by mass spectrometry; conditions: read-out: Biochem IC50
T1 construct: His tag; host or cells: E. coli
Procedure, shortened: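 Inhibition of E. coli-expressed His-tagged human NAMPT, measured as NMN formation by mass spectrometry after a 30 min room-temperature reaction containing 1 μM NAM, 100 μM PRPP and 2.5 mM ATP.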

[2] = tested on: A2780 cells; test: In-vitro cell proliferation assay (SRB), A2780 cells; type: cell-based; conditions: A2780 cells, 72 hours, read-out: A2780 IC50
Procedure, shortened: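 Read-out is SRB absorbance at 570 nm on TCA-fixed cells after 72 hours of compound treatment at 37° C. in 5% CO2. Background from a media-only plate is subtracted, and % inhibition is interpolated between two tested concentrations.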

[3] = Homo sapiens, A2780, 72 h, SRB assay

T1 sequence (P43490 whole entry): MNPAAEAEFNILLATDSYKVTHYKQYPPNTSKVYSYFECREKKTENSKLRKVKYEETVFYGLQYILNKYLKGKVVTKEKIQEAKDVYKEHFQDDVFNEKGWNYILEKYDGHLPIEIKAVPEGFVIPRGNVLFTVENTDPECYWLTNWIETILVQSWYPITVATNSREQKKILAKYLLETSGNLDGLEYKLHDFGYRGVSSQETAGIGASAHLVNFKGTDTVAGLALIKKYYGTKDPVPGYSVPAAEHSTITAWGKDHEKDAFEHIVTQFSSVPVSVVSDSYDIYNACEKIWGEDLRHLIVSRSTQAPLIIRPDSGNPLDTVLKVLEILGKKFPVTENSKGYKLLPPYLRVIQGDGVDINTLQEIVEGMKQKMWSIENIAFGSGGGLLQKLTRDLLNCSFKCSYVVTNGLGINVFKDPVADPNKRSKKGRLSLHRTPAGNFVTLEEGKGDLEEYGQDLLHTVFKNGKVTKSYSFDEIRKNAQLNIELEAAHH

Row | SMILES | IC50 ([1]; NAMPT enzymatic assay) | IC50 ([2]; Homo sapiens, A2780, 72 h, SRB) | IC50 ([1]; NAMPT enzymatic reaction) | IC50 [2, 3] | IC50 ([2]; SRB)
1 | CCNC(=O)c1ccc(S(=O)(=O)c2ccc(CNC(=O)c3ccc4nccn4c3)cc2)cc1 | 12 nM | 6.3 nM |  |  | 
2 | Cc1ncccc1S(=O)(=O)c1ccc(CNC(=O)c2cc3ccncc3s2)cc1 [N-{[4-(2-methylpyridine-3-sulfonyl)phenyl]methyl}thieno[2,3-c]pyridine-2-carboxamide] | 15.4 nM | 11.9 nM |  |  | 
3 | O=C(NCc1ccc(S(=O)(=O)c2cccc(CN3CCCCC3)c2)cc1)c1ccc2nccn2c1 | 9.1 nM | 3.5 nM |  |  | 
4 | O=C(NCc1ccc(S(=O)(=O)c2cccc(C(F)(F)F)n2)cc1)c1cc2ccncc2s1 [N-({4-[6-(trifluoromethyl)pyridine-2-sulfonyl]phenyl}methyl)thieno[2,3-c]pyridine-2-carboxamide] | 2.1 nM | 2.2 nM |  |  | 
5 | CS(=O)(=O)c1ccc(S(=O)(=O)c2ccc(CNC(=O)c3cnc4[nH]ncc4c3)cc2)cc1 [N-({4-[(4-methanesulfonylbenzene)sulfonyl]phenyl}methyl)-1H-pyrazolo[3,4-b]pyridine-5-carboxamide] |  | 23.8 nM | 29.3 nM |  | 
6 | O=C(NCc1ccc(S(=O)(=O)c2ccccc2CN2CCOCC2)cc1)c1cc2ccncc2s1 [N-[(4-{[2-(morpholin-4-ylmethyl)benzene]sulfonyl}phenyl)methyl]thieno[2,3-c]pyridine-2-carboxamide] |  |  | 13 nM | 3.6 nM | 
7 | O=C(NCc1ccc(S(=O)(=O)c2cccc(-c3ccc(F)c(F)c3)n2)cc1)c1cc2cnccc2[nH]1 [N-({4-[6-(3,4-difluorophenyl)pyridine-2-sulfonyl]phenyl}methyl)-1H-pyrrolo[3,2-c]pyridine-2-carboxamide] | 16 nM | 12.7 nM |  |  | 
8 | O=C(NCc1ccc(S(=O)(=O)c2cccc(C(F)(F)F)c2Cl)cc1)c1cc2ccncc2o1 | 18.4 nM | 27.9 nM |  |  | 
9 | N#Cc1ccccc1S(=O)(=O)c1ccc(CNC(=O)c2cc3ccncc3o2)cc1 [N-({4-[(2-cyanobenzene)sulfonyl]phenyl}methyl)furo[2,3-c]pyridine-2-carboxamide] |  | 63.5 nM | 24.6 nM |  | 
10 | O=C(NCc1ccc(S(=O)(=O)c2cccc(OC(F)(F)F)c2)cc1)c1cnc2[nH]ncc2c1 | 20.4 nM | 7.1 nM |  |  | 
11 | COc1ccc(S(=O)(=O)c2ccc(CNC(=O)c3cnc4nccn4c3)cc2)c(C(F)(F)F)c1 | 7 nM | 65.7 nM |  |  | 
12 | O=C(NCc1ccc(NS(=O)(=O)c2ccccc2)cc1)c1cc2cnccc2[nH]1 [N-[(4-benzenesulfonamidophenyl)methyl]-1H-pyrrolo[3,2-c]pyridine-2-carboxamide] |  |  | 11 nM | 5 nM | 
13 | COc1ccc(S(=O)(=O)c2ccc(CNC(=O)c3cnc4nccn4c3)cc2)cc1F [N-({4-[(3-fluoro-4-methoxybenzene)sulfonyl]phenyl}methyl)imidazo[1,2-a]pyrimidine-6-carboxamide] |  | 8.3 nM | 1.7 nM |  | 
14 | O=C(NCc1ccc(S(=O)(=O)c2ccc3ncccc3c2)cc1)c1cc2ccncc2s1 [N-{[4-(quinoline-6-sulfonyl)phenyl]methyl}thieno[2,3-c]pyridine-2-carboxamide] |  |  | 3 nM | 0.9 nM | 
15 | Cn1cc(S(=O)(=O)c2ccc(CNC(=O)c3cnc4[nH]ncc4c3)cc2)cn1 [N-{[4-(1-methyl-1H-pyrazole-4-sulfonyl)phenyl]methyl}-1H-pyrazolo[3,4-b]pyridine-5-carboxamide] | 182 nM | 100 to 1000 nM |  |  | 
16 | N#CC1(c2ccc(S(=O)(=O)c3ccc(CNC(=O)c4cc5ccncc5o4)cc3)cc2)CCCC1 | 8 nM | 6 nM |  |  | 
17 | O=C(NCc1ccc(S(=O)(=O)c2ccc(-n3ccnc3)cc2)cc1)c1cnc2nccn2c1 | < 0.65 nM | 12.2 nM |  |  | 
18 | O=C(NCc1ccc(S(=O)(=O)c2nccs2)cc1)c1cc2ccncc2s1 [N-{[4-(1,3-thiazole-2-sulfonyl)phenyl]methyl}thieno[2,3-c]pyridine-2-carboxamide] | 14.4 nM | 75.1 nM |  |  | 
19 | Cc1ccc(S(=O)(=O)c2ccc(CNC(=O)c3cc4ccncc4o3)cc2)cc1Cl |  | 1.7 nM | 52.8 nM |  | 
20 | O=C(NCc1ccc(S(=O)(=O)c2cccc3cccnc23)cc1)c1cc2ccncc2s1 [N-{[4-(quinoline-8-sulfonyl)phenyl]methyl}thieno[2,3-c]pyridine-2-carboxamide] |  |  | 6 nM | 2.5 nM | 
21 | Cc1ccc(S(=O)(=O)c2ccc(CNC(=O)c3cc4cnccc4[nH]3)cc2)cn1 [N-{[4-(6-methylpyridine-3-sulfonyl)phenyl]methyl}-1H-pyrrolo[3,2-c]pyridine-2-carboxamide] | 55.7 nM | 13 nM |  |  | 
22 | O=C(NCc1ccc(S(=O)(=O)c2cc(F)ccc2CO)cc1)c1cnc2[nH]ncc2c1 [N-[(4-{[5-fluoro-2-(hydroxymethyl)benzene]sulfonyl}phenyl)methyl]-1H-pyrazolo[3,4-b]pyridine-5-carboxamide] | 109 nM | 100 to 1000 nM |  |  | 
23 | COc1ccc(F)c(S(=O)(=O)c2ccc(CNC(=O)c3ccc4nccn4c3)cc2)c1 |  | 12.8 nM | 4.7 nM |  | 

Row | SMILES | IC50 ([1]; NAMPT enzymatic assay) | IC50 ([2]; Homo sapiens, A2780, 72 h, SRB) | IC50 ([1]; NAMPT enzymatic reaction) | IC50 [2, 3] | IC50 ([2]; SRB)
24 | COc1cc(C)cc(OC)c1S(=O)(=O)c1ccc(CNC(=O)c2cc3cnccc3[nH]2)cc1 [N-({4-[(2,6-dimethoxy-4-methylbenzene)sulfonyl]phenyl}methyl)-1H-pyrrolo[3,2-c]pyridine-2-carboxamide] |  |  | 16 nM | 10 nM | 
25 | O=C(NCc1ccc(S(=O)(=O)c2cnc(N3CCCC3)s2)cc1)c1ccc2nccn2c1 [N-({4-[2-(pyrrolidin-1-yl)-1,3-thiazole-5-sulfonyl]phenyl}methyl)imidazo[1,2-a]pyridine-6-carboxamide] | 2.4 nM | 0.4 nM |  |  | 
26 | O=C(Nc1ccc(S(=O)(=O)N2CCCCC2)cc1)c1cc2cnccc2[nH]1 [N-[4-(piperidine-1-sulfonyl)phenyl]-1H-pyrrolo[3,2-c]pyridine-2-carboxamide] |  |  | 8 nM | 6 nM | 
27 | CCOc1cc(S(=O)(=O)c2ccc(CNC(=O)c3cc4ccncc4o3)cc2)ccc1F [N-({4-[(3-ethoxy-4-fluorobenzene)sulfonyl]phenyl}methyl)furo[2,3-c]pyridine-2-carboxamide] |  | 7.2 nM | 11 nM |  | 
28 | COc1ccccc1S(=O)(=O)c1ccc(CNC(=O)c2cc3cnccc3[nH]2)cc1 [N-({4-[(2-methoxybenzene)sulfonyl]phenyl}methyl)-1H-pyrrolo[3,2-c]pyridine-2-carboxamide] |  |  | 9 nM | 7 nM | 
29 | O=C(NCc1ccc(S(=O)(=O)c2cccc(OC(F)(F)F)c2F)cc1)c1cc2ccncc2s1 | 9.8 nM | 13.3 nM |  |  | 
30 | CCOc1ccc(S(=O)(=O)c2ccc(CNC(=O)c3cc4ccncc4s3)cc2)cc1F |  | 3.6 nM | 8.9 nM |  | 
31 | Cc1ccc(Cl)cc1S(=O)(=O)c1ccc(CNC(=O)c2cnc3nccn3c2)cc1 |  | 4.3 nM | 3.1 nM |  | 
32 | CCCOc1ccc(S(=O)(=O)c2ccc(CNC(=O)c3cc4ccncc4s3)cc2)cc1 |  | 8.1 nM | 4.3 nM |  | 
33 | COc1ccccc1S(=O)(=O)c1ccc(CNC(=O)c2cnc3[nH]ncc3c2)cc1 [N-({4-[(2-methoxybenzene)sulfonyl]phenyl}methyl)-1H-pyrazolo[3,4-b]pyridine-5-carboxamide] |  | 61.8 nM | 68.3 nM |  | 
34 | CCc1ccccc1S(=O)(=O)c1ccc(CNC(=O)c2ccc3nccn3c2)cc1 [N-({4-[(2-ethylbenzene)sulfonyl]phenyl}methyl)imidazo[1,2-a]pyridine-6-carboxamide] |  | 12.9 nM | 30.2 nM |  | 
35 | O=C(NCc1ccc(S(=O)(=O)c2cccc(OCC(F)(F)F)c2)cc1)c1cc2ccncc2o1 [N-[(4-{[3-(2,2,2-trifluoroethoxy)benzene]sulfonyl}phenyl)methyl]furo[2,3-c]pyridine-2-carboxamide] | 7.2 nM | 12 nM |  |  | 
36 | O=C(NCc1ccc(S(=O)(=O)c2ccc(-n3cccn3)cc2F)cc1)c1ccc2nccn2c1 [N-[(4-{[2-fluoro-4-(1H-pyrazol-1-yl)benzene]sulfonyl}phenyl)methyl]imidazo[1,2-a]pyridine-6-carboxamide] | 8.44 nM | 12.8 nM |  |  | 
37 | O=C(NCc1ccc(S(=O)(=O)c2cc(CO)ccc2Cl)cc1)c1cc2cnccc2[nH]1 | 8.3 nM | 26.2 nM |  |  | 
38 | CCOc1cc(Cl)ccc1S(=O)(=O)c1ccc(CNC(=O)c2cnc3nccn3c2)cc1 |  | 4.5 nM | 2 nM |  | 
39 | O=C(NCc1ccc(S(=O)(=O)c2ccc(Cl)cc2C(F)(F)F)cc1)c1cc2ccncc2o1 | 9.8 nM | 25.4 nM |  |  | 
40 | COCc1cccc(S(=O)(=O)c2ccc(CNC(=O)c3cnc4[nH]ncc4c3)cc2)c1 [N-[(4-{[3-(methoxymethyl)benzene]sulfonyl}phenyl)methyl]-1H-pyrazolo[3,4-b]pyridine-5-carboxamide] | 38.7 nM |  |  |  | 39.4 nM
41 | O=C(NCc1ccc(S(=O)(=O)c2ccc(OC(F)(F)F)cc2)cc1)c1cnc2[nH]ncc2c1 | 34.6 nM | 22.3 nM |  |  | 
42 | O=C(NCc1ccc(S(=O)(=O)c2cc(Cl)ccc2O)cc1)c1ccc2nccn2c1 [N-({4-[(5-chloro-2-hydroxybenzene)sulfonyl]phenyl}methyl)imidazo[1,2-a]pyridine-6-carboxamide] |  | 168 nM | 14 nM |  | 
43 | CC(C)COc1ccc(S(=O)(=O)c2ccc(CNC(=O)c3cc4ccncc4s3)cc2)cc1 | 4 nM | 10.3 nM |  |  | 
44 | Cc1ccc(S(=O)(=O)c2ccc(CNC(=O)c3cc4cnccc4[nH]3)cc2)s1 [N-{[4-(5-methylthiophene-2-sulfonyl)phenyl]methyl}-1H-pyrrolo[3,2-c]pyridine-2-carboxamide] |  |  | 7 nM | 13 nM | 
45 | Cc1nc(-c2cccc(S(=O)(=O)c3ccc(CNC(=O)c4cc5ccncc5s4)cc3)c2)no1 | 3.3 nM | 1 nM |  |  | 
